Results taken from US9174994B2, “Enhanced treatment regimens using mTor inhibitors” (INTELLIKINE LLC, priority 2011, dated 2015).

Assay: Phase I clinical trial: treatment-emergent adverse events (patients, n (%)), dose limiting toxicity, MTD
Format: in vivo
[1] = Table 8: Total QDx5d QW (N = 6)
[2] = Table 8: Total QW Dosing (N = 15)
[3] = all 3 intermittent dosing regimens, n=35

Method: Safety, maximum tolerated dose (MTD), pharmacokinetics (PK) and preliminary antitumor activity were evaluated.
Pharmacodynamic (PD) endpoints were evaluated in surrogate (peripheral blood cells [PBCs], skin) and tumor tissues for the phosphorylation of TORC1-dependent markers (4EBP1/S6), and TORC2-dependent markers (AKT/PRAS40).

CC(C)n1nc(-c2ccc3oc(N)nc3c2)c2c(N)ncnc21 [compound A]
Weight decreased (Table 8: Total QDx3d QW (N = 14)): 0 (0%)
Catheter site inflammation [1]: 0 (0%)
Catheter site pain [1]: 0 (0%)
Coagulopathy [1]: 0 (0%)
Confusional state [1]: 0 (0%)
Cough [1]: 0 (0%)
DIARRHEA [1]: 0 (0%)
Dizziness [1]: 0 (0%)
Dyspnoea exertional [1]: 0 (0%)
Eye infection [1]: 0 (0%)
Fatigue [1]: 0 (0%)
Gastritis [1]: 0 (0%)
Gravitational oedema [1]: 0 (0%)
Headache [1]: 0 (0%)
Hyperbilirubinaemia [1]: 0 (0%)
Hypertransaminasaemia [1]: 0 (0%)
Hypertriglyceridaemia [1]: 0 (0%)
Hypocalcaemia [1]: 0 (0%)
Hypomagnesaemia [1]: 0 (0%)
Hypotension [1]: 0 (0%)
Insomnia [1]: 0 (0%)
Low fever [1]: 0 (0%)
Malaise [1]: 0 (0%)
Nausea [1]: 1 (17%)
Oral discomfort [1]: 0 (0%)
Orthostatic hypotension [1]: 0 (0%)
Palmar-plantar erythrodysaesthesia syndrome [1]: 0 (0%)
Panniculitis [1]: 0 (0%)
Platelet count decreased [1]: 0 (0%)
Polyuria [1]: 0 (0%)
Pyrexia [1]: 0 (0%)
Rash [1]: 0 (0%)
Rash macular [1]: 0 (0%)
Skin discolouration [1]: 0 (0%)
Skin exfoliation [1]: 0 (0%)
Urinary tract infection [1]: 0 (0%)
Urine tract infection [1]: 1 (17%)
Vomiting [1]: 1 (17%)
WEAKNESS [1]: 0 (0%)
Weight decreased [1]: 0 (0%)
Catheter site inflammation [2]: 0 (0%)
Catheter site pain [2]: 0 (0%)
Coagulopathy [2]: 0 (0%)
Confusional state [2]: 0 (0%)
Cough [2]: 0 (0%)
DIARRHEA [2]: 1 (7%)
Dizziness [2]: 0 (0%)
Dyspnoea exertional [2]: 0 (0%)
Eye infection [2]: 0 (0%)
Fatigue [2]: 0 (0%)
Gastritis [2]: 0 (0%)
Gravitational oedema [2]: 0 (0%)
Headache [2]: 0 (0%)
Hyperbilirubinaemia [2]: 0 (0%)
Hypertransaminasaemia [2]: 0 (0%)
Hypertriglyceridaemia [2]: 0 (0%)
Hypocalcaemia [2]: 0 (0%)
Hypomagnesaemia [2]: 0 (0%)
Hypotension [2]: 0 (0%)
Insomnia [2]: 0 (0%)
Low fever [2]: 0 (0%)
Malaise [2]: 1 (7%)
Nausea [2]: 0 (0%)
Oral discomfort [2]: 1 (7%)
Orthostatic hypotension [2]: 0 (0%)
Palmar-plantar erythrodysaesthesia syndrome [2]: 0 (0%)
Panniculitis [2]: 0 (0%)
Platelet count decreased [2]: 0 (0%)
Polyuria [2]: 0 (0%)
Pyrexia [2]: 0 (0%)
Rash [2]: 1 (7%)
Rash macular [2]: 0 (0%)
Skin discolouration [2]: 0 (0%)
Skin exfoliation [2]: 0 (0%)
Urinary tract infection [2]: 0 (0%)
Urine tract infection [2]: 0 (0%)
Vomiting [2]: 0 (0%)
WEAKNESS [2]: 1 (7%)
Weight decreased [2]: 0 (0%)
Grade 3 or greater TEAE: Abdominal pain upper (Total (N = 60)): 1 (2%)
Grade 3 or greater TEAE: Anaemia (Total (N = 60)): 1 (2%)
Grade 3 or greater TEAE: Aspartate aminotransferase increased (Total (N = 60)): 1 (2%)
Grade 3 or greater TEAE: Asthenia (Total (N = 60)): 1 (2%)
Grade 3 or greater TEAE: Catheter related infection (Total (N = 60)): 1 (2%)
Grade 3 or greater TEAE: Cellulitis (Total (N = 60)): 1 (2%)
Grade 3 or greater TEAE: Diarrhoea (Total (N = 60)): 3 (5%)
Grade 3 or greater TEAE: Disease progression (Total (N = 60)): 1 (2%)
Grade 3 or greater TEAE: Enterocutaneous fistula (Total (N = 60)): 1 (2%)
Grade 3 or greater TEAE: Gamma-glutamyltransferase increased (Total (N = 60)): 2 (3%)
Grade 3 or greater TEAE: Gastroenteritis (Total (N = 60)): 1 (2%)
Grade 3 or greater TEAE: Hyperglycaemia (Total (N = 60)): 5 (8%)
Grade 3 or greater TEAE: Hypokalaemia (Total (N = 60)): 2 (3%)
Grade 3 or greater TEAE: Hyponatraemia (Total (N = 60)): 2 (3%)
Grade 3 or greater TEAE: Lymphopenia (Total (N = 60)): 4 (7%)
Grade 3 or greater TEAE: Pancreatitis acute (Total (N = 60)): 1 (2%)
Grade 3 or greater TEAE: Pleural effusion (Total (N = 60)): 1 (2%)
Grade 3 or greater TEAE: Pruritus (Total (N = 60)): 2 (3%)
Grade 3 or greater TEAE: Rash (Total (N = 60)): 7 (12%)
Grade 3 or greater TEAE: Rash macular (Total (N = 60)): 1 (2%)
Grade 3 or greater TEAE: Somnolence (Total (N = 60)): 1 (2%)
Grade 3 or greater TEAE: Thrombocytopenia (Total (N = 60)): 2 (3%)
Grade 3 or greater TEAE: Urinary tract infection (Total (N = 60)): 1 (2%)
Patients Reporting at Least One Grade 3 or Greater TEAE (Total (N = 60)): 25 (42%)
Anaemia (Total QD Dosing (N = 25)): 2 (8%)
Asthenia (Total QD Dosing (N = 25)): 6 (24%)
Blood creatinine increased (Total QD Dosing (N = 25)): 6 (24%)
Coagulopathy (Total QD Dosing (N = 25)): 1 (4%)
Confusional state (Total QD Dosing (N = 25)): 1 (4%)
Cough (Total QD Dosing (N = 25)): 1 (4%)
Decreased appetite (Total QD Dosing (N = 25)): 6 (24%)
Dehydration (Total QD Dosing (N = 25)): 2 (8%)
Diarrhoea (Total QD Dosing (N = 25)): 8 (32%)
Dizziness (Total QD Dosing (N = 25)): 1 (4%)
Dry mouth (Total QD Dosing (N = 25)): 5 (20%)
Dry skin (Total QD Dosing (N = 25)): 1 (4%)
Dysgeusia (Total QD Dosing (N = 25)): 8 (32%)
Dyspepsia (Total QD Dosing (N = 25)): 1 (4%)
Dyspnoea (Total QD Dosing (N = 25)): 1 (4%)
Dyspnoea exertional (Total QD Dosing (N = 25)): 1 (4%)
Eye infection (Total QD Dosing (N = 25)): 1 (4%)
Fatigue (Total QD Dosing (N = 25)): 6 (24%)
Gastritis (Total QD Dosing (N = 25)): 1 (4%)
Gravitational oedema (Total QD Dosing (N = 25)): 1 (4%)
Hypercholesterolaemia (Total QD Dosing (N = 25)): 5 (20%)
Hyperglycaemia (Total QD Dosing (N = 25)): 22 (88%)
Hypocalcaemia (Total QD Dosing (N = 25)): 1 (4%)
Insomnia (Total QD Dosing (N = 25)): 1 (4%)
Lymphopenia (Total QD Dosing (N = 25)): 3 (12%)
Mucosal inflammation (Total QD Dosing (N = 25)): 8 (32%)
Muscle spasms (Total QD Dosing (N = 25)): 1 (4%)
Nausea (Total QD Dosing (N = 25)): 9 (36%)
Orthostatic hypotension (Total QD Dosing (N = 25)): 1 (4%)
Panniculitis (Total QD Dosing (N = 25)): 1 (4%)
Patients Reporting at Least One Related TEAE (Total QD Dosing (N = 25)): 25 (100%)
Polyuria (Total QD Dosing (N = 25)): 1 (4%)
Pruritus (Total QD Dosing (N = 25)): 9 (36%)
Rash (Total QD Dosing (N = 25)): 13 (52%)
Skin discolouration (Total QD Dosing (N = 25)): 1 (4%)
Skin exfoliation (Total QD Dosing (N = 25)): 1 (4%)
Thrombocytopenia (Total QD Dosing (N = 25)): 4 (16%)
Vomiting (Total QD Dosing (N = 25)): 6 (24%)
Weight decreased (Total QD Dosing (N = 25)): 1 (4%)
Alanine aminotransferase increased (Total QDx3d QW (N = 14)): 1 (7%)
Asthenia (Total QDx3d QW (N = 14)): 3 (21%)
Catheter site inflammation (Total QDx3d QW (N = 14)): 1 (7%)
Catheter site pain (Total QDx3d QW (N = 14)): 1 (7%)
Decreased appetite (Total QDx3d QW (N = 14)): 1 (7%)
Diarrhoea (Total QDx3d QW (N = 14)): 2 (14%)
Dry skin (Total QDx3d QW (N = 14)): 1 (7%)
Dysgeusia (Total QDx3d QW (N = 14)): 1 (7%)
Dyspnoea (Total QDx3d QW (N = 14)): 1 (7%)
Fatigue (Total QDx3d QW (N = 14)): 1 (7%)
Headache (Total QDx3d QW (N = 14)): 1 (7%)
Hyperbilirubinaemia (Total QDx3d QW (N = 14)): 1 (7%)
Hypercholesterolaemia (Total QDx3d QW (N = 14)): 1 (7%)
Hyperglycaemia (Total QDx3d QW (N = 14)): 6 (43%)
Hypertransaminasaemia (Total QDx3d QW (N = 14)): 1 (7%)
Hypertriglyceridaemia (Total QDx3d QW (N = 14)): 1 (7%)
Hypomagnesaemia (Total QDx3d QW (N = 14)): 1 (7%)
Hypotension (Total QDx3d QW (N = 14)): 1 (7%)
Low fever (Total QDx3d QW (N = 14)): 1 (7%)
Lymphopenia (Total QDx3d QW (N = 14)): 1 (7%)
Mucosal inflammation (Total QDx3d QW (N = 14)): 7 (50%)
Nausea (Total QDx3d QW (N = 14)): 6 (43%)
Palmar-plantar erythrodysaesthesia syndrome (Total QDx3d QW (N = 14)): 1 (7%)
Patients Reporting at Least One Related TEAE (Total QDx3d QW (N = 14)): 11 (79%)
Platelet count decreased (Total QDx3d QW (N = 14)): 1 (7%)
Pruritus (Total QDx3d QW (N = 14)): 4 (29%)
Pyrexia (Total QDx3d QW (N = 14)): 1 (7%)
Rash (Total QDx3d QW (N = 14)): 4 (29%)
Rash macular (Total QDx3d QW (N = 14)): 1 (7%)
Urinary tract infection (Total QDx3d QW (N = 14)): 1 (7%)
Vomiting (Total QDx3d QW (N = 14)): 3 (21%)
Asthenia (Total QDx3d QW (N = 14), 2nd Asthenia line): 1 (7%)
Diarrhoea (Total QDx5d QW (N = 6)): 1 (17%)
Patients Reporting at Least One Related TEAE (Total QDx5d QW (N = 6)): 2 (33%)
Rash (Total QDx5d QW (N = 6)): 1 (17%)
Urine tract infection (Total QDx5d QW (N = 6)): 1 (17%)
Vomiting (Total QDx5d QW (N = 6)): 1 (17%)
Nausea (Total QDx5d QW (N = 6), 1st Nausea line): 1 (17%)
Nausea (Total QDx5d QW (N = 6), 2nd Nausea line): 1 (17%)
ASTHENIA (Total QW Dosing (N = 15)): 1 (7%)
ATHENIA (Total QW Dosing (N = 15)): 1 (7%)
Alanine aminotransferase increased (Total QW Dosing (N = 15)): 1 (7%)
Aspartate aminotransferase increased (Total QW Dosing (N = 15)): 2
Asthenia (Total QW Dosing (N = 15)): 2
Blood creatinine increased (Total QW Dosing (N = 15)): 1 (7%)
Blood triglycerides increased (Total QW Dosing (N = 15)): 1 (7%)
DIARRHEA (Total QW Dosing (N = 15)): 1 (7%)
Decreased appetite (Total QW Dosing (N = 15)): 1 (7%)
Diarrhoea (Total QW Dosing (N = 15)): 3
Dysgeusia (Total QW Dosing (N = 15)): 1 (7%)
Dyspepsia (Total QW Dosing (N = 15)): 1 (7%)
HYPERGLYCEMIA (Total QW Dosing (N = 15)): 2
Hyperglycaemia (Total QW Dosing (N = 15)): 5
Lymphopenia (Total QW Dosing (N = 15)): 1 (7%)
Malaise (Total QW Dosing (N = 15)): 1 (7%)
Mucosal inflammation (Total QW Dosing (N = 15)): 3
Muscle spasms (Total QW Dosing (N = 15)): 1 (7%)
Nausea (Total QW Dosing (N = 15)): 10
Oral discomfort (Total QW Dosing (N = 15)): 1 (7%)
Patients Reporting at Least One Related TEAE (Total QW Dosing (N = 15)): 13
Pruritus (Total QW Dosing (N = 15)): 1 (7%)
RASH (Total QW Dosing (N = 15)): 1 (7%)
Rash (Total QW Dosing (N = 15)): 1 (7%)
Vomiting (Total QW Dosing (N = 15)): 5
WEAKNESS (Total QW Dosing (N = 15)): 1 (7%)
asthenia, AE considered possibly related [3]: 23%
diarrhea, AE considered possibly related [3]: 20%
hyperglycemia, AE considered possibly related [3]: 37%
mucosal inflammation, AE considered possibly related [3]: 29%
nausea, AE considered possibly related [3]: 51%
rash, AE considered possibly related [3]: 23%
vomiting, AE considered possibly related [3]: 26%
grade of the majority of AEs considered possibly related (any regimen): Grade 1 or 2
MTD (intermittent dosing): not reached
